Columns and labels:
[1] = Formalin model; type: in vivo; settings: rat
Source text: Formalin induces inflammatory stimulation of peripheral nerves that results in sensitization of CNS nociceptive transmission pathways. There are two phases of formalin-induced nociception: phase I—an acute nociceptive component; and phase II—a chronic nociceptive component characterized by hyperalgesia.
On the morning of formalin testing, a small metal band (0.5 g) was loosely placed around the right hind paw. The rat was placed in a cylindrical Plexiglas chamber for adaptation for a minimum of 30 minutes. Compound A, venlafaxine or a saline control was administered into the dorsal surface of the right hindpaw of the rat. The animal was then placed into the chamber of the automated formalin apparatus where movement of the formalin-injected paw was monitored and the number of paw flinches tallied by minute over the next sixty minutes. Upon completion of the test the animal was removed and euthanized.

[2] = Safety pharmacology, rat; type: in vivo
[3] = Abuse assay (self-administration); type: in vivo, Cynomologous monkeys
Experimental: Cynomologous monkeys are trained to self-administer drugs by pressing on a lever a certain number of times. The number of times an animal will press the lever before extinquishing in an attempt to self-administer drug is calculated as their fixed ratio (FR). For example, cynomologous monkeys that are trained to self-administer codeine will press the lever 300 times (FR 300) and or 10,000 times (FR 10,000) to obtain a dose of codeine. Cynomologous monkeys were trained to self-administer the compounds of the present invention.

[4] = Rat PQW; type: in vivo
Experimental: (§1) The anti-phenylquinone writhing (PQW) test modified from the methods of Siegmund et al. (Proc. Soc. Exp. Biol. Med. 95: 729-731, 1957) and Blumberg et al. (Proc. Exp. Biol. Med. 118: 763-767, 1965) was used to assess the relief from the simulated symptoms of neuropathic pain in mice. Male CF1 mice (Charles River Breeding Laboratories, Wilmington, Mass.), fasted for 16-22 hours and weighing 18-23 g, were injected with randomized and coded doses of test compounds, then challenged with 1.25 mg/kg i.p. phenyl-p-benzoquinone (phenylquinone) 5 minutes prior to the specified observation time. The phenylquinone solution (0.1 mg/ml in 5% aqueous ethanol) was prepared daily and stored in foil-wrapped amber bottles to limit degradation. Mice were observed 10 minutes for the presence or absence of the characteristic abdominal constriction and stretching response beginning 30 minutes after injection of the test compound. Activity was calculated as the percentage of mice failing to respond to the phenylquinone challenge dose. […] Median effective doses (ED50's) and 95% confidence limits were determined numerically by the methods of Thompson (Bacteriological Rev. 11: 115-145, 1947), and Litchfield and Wilcoxon (J. Pharmacol. Exp. Ther. 96: 99-113, 1949).

[5] = Rat Randall-Selitto; type: in vivo; set-up: key to activity in rat Randell-Selitto model: *: Inactive; Φ: Weakly active
[6] = target: T1, delta receptor sites in the brain (Homo sapiens, UniProt P41143); experiment: Activity at delta receptor sites in the brain; type: binding
T1 construct: mu, kappa, delta or sigma receptor sites in the brain; from tissue

[7] = Side effects at effective doses; type: in vivo; settings: at effective doses for neuropathic pain
[8] = Five-day Oral Dose Escalation in Beagle Dogs; type: in vivo, Beagle dog
[9] = target: T2, uptake of dopamine (Rattus norvegicus, UniProt P23977); experiment: Dopamine uptake in rat brain preparations; type: biochemical; settings: printed as 'and/or dopamine'
T2 construct: dopamine in rat brain preparations; from tissue; host or cells: rat brain preparations

[10] = Studies in animals: addictive and respiratory depressant properties; type: in vivo; settings: versus narcotic-related analgesics
[11] = system: prostaglandin synthesase; experiment: Prostaglandin synthesase inhibition; type: biochemical
[12] = Chung model (tactile allodynia); type: in vivo, rat
Experimental: This model for neuropathic pain was performed on rats using the surgical procedure described by Kim and Chung (1992) to induce an allodynic state. Briefly, the left L-5 and L-6 spinal nerves were isolated adjacent to the vertebral column and ligated with 6-0 silk suture distal to the dorsal root ganglion under isoflurane anesthesia. This model allows for spinal cord structural reorganization and growth of low threshold mechnoreceptor fibers from the spinal cord with synaptic connections and rewiring of the dorsal horn. This leads to spontaneous firing of invading sympathetic nerves and upregulation of receptors and voltage-dependent channels; i.e. mimics the development of allodynia (nociceptive response to a previously neutral stimulus). The rats were allowed a minimum of 7-days postoperative recovery period before testing.
To assess tactile thresholds in the Chung model, rats were placed in a clear plastic, wire mesh-bottomed cage, divided into individual compartments. Animals were allowed to acclimate and then baseline thresholds were assessed prior to drug treatment. To assess the 50% mechanical threshold for paw withdrawal, von Frey hairs were applied to the plantar mid-hindpaw, avoiding the tori (footpads). The eight von Frey hairs used are designated by [log (10*force required to bend hair, mg)] and range from 0.4-15.1 grams (#'s 3.61-5.18). Each hair was pressed perpendicularly against the paw with sufficient force to cause slight bending, and held for approximately 6-8 seconds. A positive response was noted if the paw was sharply withdrawn. Flinching immediately upon removal of the hair was also considered a positive response. Absence of a response (“−”) was cause to present the next consecutive stronger stimulus; a positive response (“+”) was cause to present the next weaker stimulus. Stimuli were presented successively until either six data points were collected, or the maximum or minimum stimulus was reached. If a minimum stimulus was reached and positive responses still occurred, the threshold was assigned an arbitrary minimum value of 0.25 grams; if a maximum stimulus was presented and no response occurred, a maximum threshold value of 15 grams was assigned. If a change in response occurs, either “−” to “+” or “+” to “−”, causing a change in the direction of stimulus presentation from descending to ascending or vice-versa, four additional data points were collected subsequent to the change.

[13] = Mouse Tail-Flick; type: in vivo; set-up: key to activity in mouse Tail flick model: *: Inactive; Φ: Weakly active
[14] = Monkey tail dip; type: in vivo; settings: unmarked entry of animal model table
[15] = Mouse antiphenylquinone writhing (PQW) test; type: in vivo
Experimental: as §1

[16] = system: Bacterial Mutagenicity; experiment: In Vitro Bacterial Mutagenicity: Modified Ames Test; type: cell-based
[17] = all administered doses, versus saline control

T2 sequence (P23977 whole entry): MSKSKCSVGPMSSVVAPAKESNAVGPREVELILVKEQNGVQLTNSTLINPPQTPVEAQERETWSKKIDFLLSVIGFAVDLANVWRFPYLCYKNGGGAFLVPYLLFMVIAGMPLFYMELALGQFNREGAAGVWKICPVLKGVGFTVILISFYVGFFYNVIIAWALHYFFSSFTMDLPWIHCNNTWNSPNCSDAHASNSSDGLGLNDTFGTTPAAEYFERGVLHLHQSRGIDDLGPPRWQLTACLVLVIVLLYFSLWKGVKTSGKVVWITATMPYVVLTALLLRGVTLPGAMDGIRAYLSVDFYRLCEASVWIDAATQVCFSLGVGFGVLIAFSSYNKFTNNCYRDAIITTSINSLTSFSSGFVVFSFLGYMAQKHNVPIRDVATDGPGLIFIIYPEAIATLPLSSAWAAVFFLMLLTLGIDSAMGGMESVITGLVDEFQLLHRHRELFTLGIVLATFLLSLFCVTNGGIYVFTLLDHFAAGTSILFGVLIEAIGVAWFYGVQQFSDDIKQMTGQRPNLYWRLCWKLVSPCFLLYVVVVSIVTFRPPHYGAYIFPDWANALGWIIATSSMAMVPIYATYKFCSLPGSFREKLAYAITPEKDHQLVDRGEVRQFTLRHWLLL
T1 sequence (P41143 whole entry): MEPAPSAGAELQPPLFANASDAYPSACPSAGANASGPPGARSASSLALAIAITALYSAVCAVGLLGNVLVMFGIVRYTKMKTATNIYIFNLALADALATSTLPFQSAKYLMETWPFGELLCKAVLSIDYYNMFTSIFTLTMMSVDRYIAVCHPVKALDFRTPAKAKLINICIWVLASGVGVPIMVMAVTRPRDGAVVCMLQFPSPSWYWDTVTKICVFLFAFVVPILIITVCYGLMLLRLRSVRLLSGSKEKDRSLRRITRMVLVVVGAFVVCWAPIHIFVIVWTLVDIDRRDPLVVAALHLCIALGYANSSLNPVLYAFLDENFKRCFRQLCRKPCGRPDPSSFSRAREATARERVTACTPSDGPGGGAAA

SMILES: CN1CCC(c2ccsc2)(C(C)(C)O)CC1 [Compound A, 4-(3-thienyl)-α,α,1-trimethyl-4-piperidinemethanol]
- effect upon hyperalgesia induced by injection of formalin into the paw [1]: reliable dose dependent effect
- formalin test, paw flinches, phase I ([1]; all administered doses (200/100/50 mg per kg), versus saline control): statistically significant effects
- formalin test, paw flinches, phase II [1, 17]: statistically significant effects
- formalin test, paw flinches, phase IIA [1, 17]: statistically significant effects
- formalin test, paw flinches, Phase IIB ([1]; versus saline control): No statistical significance
- LD ([2]; po): LD = 400 mg/kg-po
- anorexia, multiple of effective dose (mg/kg) ([2]; po): 10,100,300 mg/kg
- physical dep ([2]; po): non-opioid
- respiratory acidosis, exophthalmia, multiple of effective dose ([2]; po): 1-50 X
- LD ([2]; sc): LD = 270 mg/kg-sc
- monkeys responding following involuntary injections ([3]; Cynomologous monkeys): two out of four monkeys
- self-administration response achieved ([3]; Cynomologous monkeys trained to self-administer): one out of four monkeys
- ED50 ([4]; Rattus norvegicus): 7.9 mg/kg
- activity in rat PQW model ([4]; rat, unmarked entry of animal model table): showed activity
- ED50 ([5]; Rattus norvegicus): 32 mg/kg
- activity in rat Randell-Selitto model ([5]; rat): Randell-Selitto^Φ
- activity at delta receptor sites [6]: does not show significant activity
- anticholinergic side effects, sedation or other signs of motor impairment [7]: not accompanied by anticholinergic side effects, sedation or other signs of motor impairment
- NOEL (mydriasis) [8]: NOEL < 2.5 mg/kg
- MTD at 5 day ([8]; dog, in vivo, read-out: MTD (decreased BW)): < 20 mg/kg
- uptake of dopamine [9]: inhibits uptake
- addictive and respiratory depressant properties [10]: lacks the addictive and respiratory depressant properties
- inhibition of prostaglandin synthesase activity [11]: does not inhibit
- effect upon arousal or motor function ([12]; at doses effective in formalin and Chung models): no effect upon arousal or motor function
- effect upon tactile allodynia arising from nerve injury ([12]; rat): reliable dose dependent effect
- effects on tactile allodynia ([12]; rat, two hours post injection, doses 200 mg/kg and 100 mg/kg): statistically significant effects
- ED50 ([13]; Mus musculus, read-out: Mouse Tail-Flick ED50): 117 mg/kg
- activity in mouse Tail flick model ([13]; mouse): Tail flick^Φ
- activity in monkey Tail dip model [14]: showed activity
- ED50 ([15]; Mus musculus): 18 mg/kg
- activity in mouse PQW model ([15]; mouse, unmarked entry of animal model table): showed activity
- In Vitro Bacterial Mutagenicity: Modified Ames Test [16]: Not mutagenic

Source: patent publication US6825217B2, “Carbinols for the treatment of neuropathic dysfunction” (Endo Pharmaceuticals, Inc., priority 2001, dated 2004)
